Laboratory results reported in publication PMC4789278, “Pharmacological inhibition of LSD1 for the treatment of MLL-rearranged leukemia” (Journal of Hematology & Oncology, 2016).

Legend:
[1] = test system: gene expression in MV4-11 cells; assay: Microarray / GSEA; assay type: cell-based, human; conditions: 7 days
Procedure: To this end, triplicate samples of MV4-11 cells were treated with compounds 1 and 2 and the RNA of these samples was isolated, amplified, and hybridized to Illumina HT-12 microarrays. The microarray data were log2-transformed and normalized to have the same median values for comparative analysis. Moderate t test was applied to search for genes that were differentially expressed between the control and compound treated samples, using the filter thresholds of p values <0.05 and fold changes >4. […] Next, we used gene set enrichment analysis (GSEA) in an effort to find the possible mechanism(s) for the LSD1 inhibition-mediated antileukemia activity.
For 7 days, 10^5 cells/well were incubated with compounds. Cells were treated with Trizol® Reagent, frozen in liquid nitrogen, and shipped to Asuragen, Inc. (Austin, TX) for microarray experiments. RNA from these samples was isolated, amplified, and hybridized to Illumina Human HT-12 v4 arrays according to the manufacturer’s protocol. Microarray data were log2 transformed and normalized to have the same median for all the arrays. Moderate t statistics were used to find genes that were differentially expressed between the samples of interest. Benjamini and Hochberg method was used to correct for multiple comparisons. […]

MV4-11 cells [2] = assay: FACS-based Annexin-V apoptosis assay; assay type: cell-based, human
Procedure: (§1) For Annexin V apoptosis assay, 10^5 cells/well were incubated with increasing concentrations of a compound for 7 or 14 days. Apoptosis was determined using the FITC Annexin V Apoptosis Detection Kit I (BD Bioscience) using the manufacturer’s protocol. For other FACS assays, cells were labeled with fluorochrome-conjugated monoclonal antibodies against human CD14, CD11b, CD45, or CD33 (BD Biosciences) according to the manufacturer’s recommendation. Cells were analyzed using a FACS Calibur (BD Biosciences/Applied Biosystems), and data were processed using the program Flowjo (version7.6.5).

[3] = test system: HoxA9 and Meis1 expression in MV4-11 cells; assay: Quantitative real-time PCR of HoxA9 and Meis1; assay type: cell-based, human
Procedure: Next, we examined whether LSD1 inhibition can block the expression of HoxA9 and Meis1, whose overexpression has been observed in MLL-rearranged leukemia.
For 3 days, 10^4 cells/well were incubated with a compound, and the RNA was extracted from cells using RNeasy mini kit (QIAGEN); 100–1000 ng of total RNA was reverse transcribed using iScript™ Reverse Transcription Supermix (Bio-Rad) using the manufacturer’s protocol. Quantitative real-time PCR was carried out using Fast SYBR Green Master Mix (Applied Biosystems) according to the manufacturer’s instructions. Measurements were performed in triplicate, using GAPDH as the reference gene. Real-time PCR was performed using Biosystems Step One Plus detection system. The following sequences of primers are used: […]

[4] = test system: human primary leukemia cells from an AML patient with MLL-ENL fusion oncogene; assay: Colony-forming assay; assay type: cell-based; conditions: 336 h, colonies counted after 14 days, read-out: colony-forming ability EC50
Procedure: Colony-forming assay using non-serum culture media represents a useful method to assess self-renewal capacity of stem-like cancer cells. The number of cell colonies formed in the assay reflects the proportion of stem-like cells in a given number of cancer cells. […] Human MLL-rearranged AML samples will be obtained from the Children’s Oncology Group (COG) Biopathology Center, in accordance with the IRB-approved protocol H-24170. The colony-forming assay was performed according to our previously published method. After 14 days, the colony number of each culture dish was counted and imported into Prism 5.0 and EC50 values were determined by using the sigmoidal dose response curve fitting in the software.

U937 leukemia cells = assay: Antiproliferation assay (XTT), U937; assay type: cell-based; conditions: Homo sapiens, U-937, 360 h; 15-day treatment; non-MLL leukemia cells; read-out: U937 EC50 (antiproliferative)
Procedure: (§2) We next examined the spectrum of antitumor activity for compounds 1–4. These compounds were incubated with a panel of six human leukemia and solid tumor cell lines, including two MLL-rearranged leukemia cells MV4-11 and Molm-13 containing fusion oncogenes MLL-AF4 and -AF9, respectively. […] Also included in the studies are breast cancer MCF-7 and prostate cancer LNCaP cells. […]
(§3) Proliferation inhibition assay for suspension leukemia cells was performed using an XTT assay kit (Roche) with our previously described method. Proliferation inhibition assay for solid tumor cell lines MCF-7 and LNCaP was performed using our previous described MTT assay. The antiproliferation EC50 values were determined by Prism, and the reported results were the mean values of at least three independent experiments.

NB4 leukemia cells = assay: Antiproliferation assay (XTT), NB4; assay type: cell-based; conditions: Homo sapiens, 360 h; 15-day treatment; non-MLL leukemia cells; read-out: NB4 EC50 (antiproliferative)
Procedure: as §2, §3

MV4-11 cells [5] = assay: FACS of differentiation markers CD14 / CD11b; assay type: cell-based, human; conditions: for cell populations expressing high levels of CD14: treatment for 12 days
Procedure: Importantly, only these stem-like cancer cells can form new tumors when transplanted into a new host, while the other non-stem cancer cells fail to do so. These stem-like cancer cells are more drug resistant and believed to be responsible for tumor metastasis and relapse. […] CD14 and CD11b are two cell surface proteins characteristic to differentiated macrophages/monocytes. […] Similarly, incubation with 2 led to considerably more CD11b^+ cells (Fig. 3b).
as §1

[6] = test system: prostate cancer LNCaP cells; assay: Antiproliferation assay (MTT), LNCaP; assay type: cell-based; conditions: Homo sapiens, 360 h, 15-day treatment, read-out: LNCaP EC50 (antiproliferative)
Procedure: as §2, §3

Row | Compound | expression of hematopoietic differentiation and pro-apoptotic gene sets (GSEA) [1] | apoptosis of MV4-11 cells (MV4-11 cells [2]; 30 nM, day 7) | apoptosis of MV4-11 cells (MV4-11 cells [2]; 30 nM, day 14) | apoptosis of MV4-11 cells (MV4-11 cells [2]; 300 nM, day 7) | apoptosis of MV4-11 cells (MV4-11 cells [2]; 300 nM, day 14) | expression of HoxA9 and Meis1 [3] | EC50 [4] | EC50 (U937 leukemia cells) | EC50 (NB4 leukemia cells) | cell populations expressing high levels of CD14 (MV4-11 cells [5]) | EC50 [6] | apoptosis of MV4-11 cells (MV4-11 cells [2]; 0.1 μM, 7 days) | apoptosis of MV4-11 cells (MV4-11 cells [2]; 0.1 μM, 14 days) | apoptosis of MV4-11 cells (MV4-11 cells [2]; 1 μM, 7 days) | apoptosis of MV4-11 cells (MV4-11 cells [2]; 1 μM, 14 days) | CD11b+ cells (MV4-11 cells [5]; 1 μM)
1 | CN1CCN(C(=O)CNC2CC2c2ccc(OCc3ccccc3)cc2)CC1 (centres unmarked) [Compound 1] | significant upregulation | 12% | 20% | 13% | 26% | significantly decrease the expression of both HoxA9 and Meis1 in a dose-dependent manner | 0.43 µM | 18.9 µM | 19.4 µM | > 90% | 3.7 µM | – | – | – | – | –
2 | CN1CCN(C(=O)CNC2CC2c2ccc(-c3ccc(F)nc3)cc2)CC1 (centres unmarked) [Compound 2] | significant upregulation | – | – | – | – | significantly decrease the expression of both HoxA9 and Meis1 in a dose-dependent manner | 0.52 µM | 34.6 µM | 18.9 µM | > 90% | 10 µM | 11% | 13% | 45% | 49% | 19.5%
